According to PMC6133161, “Thiazoles with cyclopropyl fragment as antifungal, anticonvulsant, and anti-Toxoplasma gondii agents: synthesis, toxicity evaluation, and molecular docking study” (Medicinal Chemistry Research, 2018):
Converted amounts (≈) assume the structure as drawn.

Assays:
[1] = system: C. albicans; experiment: Broth microdilution MIC/MFC, clinical isolate; assay type: cell-based; conditions: Candida albicans, C. albicans clinical strain; for MFC: read-out: MFC; for MIC: read-out: MIC
Text: (§1) In the study of antifungal activity of the compounds 3a–3j, 15 clinical strains of different species of yeasts from Candida species, namely C. albicans, C. dubliniensis C. famata, C. inconspicua, C. krusei, C. tropicalis, C. glabrata, C. lambica, C. kefyr, C. lusitaniae, C. parapsilosis, C. guilliermondii, C. lusitaniae, C. pulcherrima and C. sake were also used. These fungi were isolated by the author (from Department of Pharmaceutical Microbiology of Medical University in Lublin, Poland) from different clinical materials, e.g., from upper respiratory tract of hospitalized patients including cancer patients (i.e., with non-small cell lung cancer or hematological malignancies). Some patients were after pre-operative or post-operative chemotherapy (treated with etoposide or cis-platin given in doses according to the standard procedures), patients with chronic hepatitis C (undergoing peginterferon and ribavirin therapy or without antiviral therapy), patients with diabetes, elderly people, aged of 65 years old or older, staying in close population, such as a care centre and people staying outside the home care. The Ethical Committee of the Medical University of Lublin approved the study protocol (No. KE-0254/75/2011). The isolates were identified by standard diagnostic methods—biochemical microtest, e.g., API 20C AUX, ID 32C, API Candida (bioMérieux) on the basis of assimilation of various substrates. All the used microbial cultures were first subcultured on nutrient agar or Sabouraud agar for bacteria and fungi, respectively. The RPMI 1640 with MOPS (for fungi) were inoculated with the suspensions of fungal species. Microbial suspensions were prepared in sterile saline (0.85% NaCl) with an optical density of 0.5 McFarland standard scale (Wiegand et al. [2008]). Samples containing examined compounds were dissolved in dimethyl sulfoxide (DMSO). Furthermore, fungal suspensions were put onto Petri dishes with solid media containing 2 mg/ml of the tested compounds followed incubation under appropriate conditions. The inhibition of microbial growth was judged by comparison with a control culture prepared without any sample tested. Nystatin (Sigma) was used as a reference antifungal compound. Subsequently MIC minimal inhibitory concentration (MIC) of the compounds was examined by the microdilution broth method, using their two-fold dilutions in RPMI 1640 broth with MOPS prepared in 96-well polystyrene plates. Final concentrations of the compounds ranged from 1000 to 0.0038 µg/ml. Microbial suspensions were prepared in sterile saline with an optical density of 0.5 McFarland standard. Next fungal suspension was added per each well containing broth and various concentrations of the examined compounds. After incubation, the MIC was assessed spectrophotometric as the lowest concentration of the samples showing complete fungal growth inhibition. Appropriate DMSO, growth and sterile controls were carried out. The medium with no tested substances was used as a control (Wiegand et al. [2008]). The minimal fungicidal concentration (MFC) are defined as the lowest concentration of the compounds that is required to kill a particular fungal species. MFC was determined by removing the culture using for MIC determinations from each well and spotting onto appropriate agar medium. The plates were incubated. The lowest compounds concentration with no visible growth observed was assessed as a fungicidal concentration. All the experiments were repeated three times and representative data are presented.
(§2) The MFC/MIC ratios were calculated in order to determine fungicidal (MFC/MIC ≤ 4) or fungistatic (MFC/MIC > 4) effect of the tested compounds (O’Donnell et al. [2010]).

[2] = system: C. dubliniensis; experiment: Broth microdilution MIC/MFC, clinical isolate; assay type: cell-based; conditions: Candida dubliniensis, C. dubliniensis clinical strain; for MFC: read-out: MFC; for MIC: read-out: MIC
Text: as §1, §2

[3] = system: C. famata; experiment: Broth microdilution MIC/MFC, clinical isolate; assay type: cell-based; conditions: Debaryomyces hansenii, C. famata clinical strain; for MFC: read-out: MFC; for MIC: read-out: MIC
Text: as §1, §2

[4] = system: C. glabrata; experiment: Broth microdilution MIC/MFC, clinical isolate; assay type: cell-based; conditions: Nakaseomyces glabratus, C. glabrata clinical strain; for MFC: read-out: MFC; for MIC: read-out: MIC
Text: as §1, §2

[5] = system: C. guilliermondii; experiment: Broth microdilution MIC/MFC, clinical isolate; assay type: cell-based; conditions: Meyerozyma guilliermondii, C. guilliermondii clinical strain; for MFC: read-out: MFC; for MIC: read-out: MIC
Text: as §1, §2

[6] = system: C. inconspicua; experiment: Broth microdilution MIC/MFC, clinical isolate; assay type: cell-based; conditions: Pichia inconspicua, C. inconspicua clinical strain; for MFC: read-out: MFC; for MIC: read-out: MIC
Text: as §1, §2

[7] = system: C. kefyr; experiment: Broth microdilution MIC/MFC, clinical isolate; assay type: cell-based; conditions: Kluyveromyces marxianus, C. kefyr clinical strain; for MFC: read-out: MFC; for MIC: read-out: MIC
Text: as §1, §2

[8] = system: C. krusei; experiment: Broth microdilution MIC/MFC, clinical isolate; assay type: cell-based; conditions: Pichia kudriavzevii, C. krusei clinical strain; for MFC: read-out: MFC; for MIC: read-out: MIC
Text: as §1, §2

[9] = system: C. lambica; experiment: Broth microdilution MIC/MFC, clinical isolate; assay type: cell-based; conditions: Pichia fermentans, C. lambica clinical strain; for MFC: read-out: MFC; for MIC: read-out: MIC
Text: as §1, §2

[10] = system: C. tropicalis; experiment: Broth microdilution MIC/MFC, clinical isolate; assay type: cell-based; conditions: Candida tropicalis, C. tropicalis clinical strain; for MFC: read-out: MFC; for MIC: read-out: MIC
Text: as §1, §2

[11] = system: maximal electroshock seizures; experiment: Maximal electroshock seizure (MES) test; assay type: in vivo, mouse; conditions: Mus musculus; MES test, mice, 100 mg/kg ip; read-out: X/Y number of mice protected (X) per number of mice tested (Y) (converted)
Description: For in vivo tests that assessed anticonvulsant properties of the test compounds 3a–3j adult male Albino Swiss (CD-1) mice weighing between 18 and 22 g were used. The animals were housed in groups of ten mice per cage at room temperature of 22 ± 2 °C, under light/dark (12:12) cycle. The animals had free access to food and tap water before the experiments. The ambient temperature of the experimental room and humidity (50 ± 10%) were kept consistent throughout all the tests. For behavioral experiments the animals were selected randomly. Each experimental group consisted of 4–8 animals/dose. The experiments were performed between 9 AM and 2 PM. Immediately after the in vivo assay the animals were euthanized by cervical dislocation. All procedures were approved by the Local Ethics Committee of the Jagiellonian University in Krakow (34/2018, 1.02.2018)) and the treatment of animals was in full accordance with ethical standards laid down in respective Polish and EU regulations (Directive No. 86/609/EEC). For in vivo tests the compounds 3a–3j were prepared in 1% Tween 80 solution (POCH, Poland) and they were administered by the intraperitoneal route. Control mice received 1% Tween 80. Pentylenetetrazole (PTZ), pilocarpine hydrochloride and scopolamine butylbromide were provided by Sigma Aldrich (Poland). For the tests they were prepared in 0.9% saline (Polfa Kutno, Poland). PTZ and pilocarpine were administered 60 min after the test compound or vehicle. To assess anticonvulsant properties of the test compounds anticonvulsant screening was conducted. Four assays were used: PTZ, maximal electroshock seizure (MES), 6-Hz and pilocarpine tests. In these assays the dose of 100 mg/kg was chosen as a starting dose. If it turned out to be effective, a lower dose (30 mg/kg) was also tested. MES test was performed according to a method previously described (Sałat et al. [2005]). In this test vehicle-treated mice and drug-treated mice received a stimulus of 25 mA delivered by an electroshock generator (Hugo Sachs rodent shocker, Germany) to induce maximal seizures (tonic extension) of hind limbs. Electroconvulsions were produced with the use of auricular electrodes and the stimulus duration was 0.2 s. Tonic extension of the hind limbs was regarded as the endpoint for this procedure.

Fc1ccc(-c2csc(N/N=C/C3CC3)n2)c(F)c1 [Compound 3g, (E)-2-(2-(Cyclopropylmethylene)hydrazinyl)-4-(2,4-difluorophenyl)thiazole]
MFC [1]: 1.95 µg/mL (≈ 6.98 µM) | MIC [1]: 0.48 µg/mL (≈ 1.72 µM) | MFC [2]: 0.48 µg/mL (≈ 1.72 µM) | MIC [2]: 0.24 µg/mL (≈ 0.859 µM) | MFC [3]: 62.5 µg/mL (≈ 224 µM) | MIC [3]: 7.81 µg/mL (≈ 28 µM) | MFC [4]: > 1000 µg/mL | MIC [4]: 15.6 µg/mL (≈ 55.9 µM) | MFC [5]: 31.2 µg/mL (≈ 112 µM) | MIC [5]: 7.81 µg/mL (≈ 28 µM) | MFC [6]: 1.98 µg/mL (≈ 7.09 µM) | MIC [6]: 0.48 µg/mL (≈ 1.72 µM) | MFC [7]: 31.2 µg/mL (≈ 112 µM) | MIC [7]: 31.2 µg/mL (≈ 112 µM) | MFC [8]: 0.48 µg/mL (≈ 1.72 µM) | MIC [8]: 0.03 µg/mL (≈ 0.107 µM) | MFC [9]: > 1000 µg/mL | MIC [9]: 125 µg/mL (≈ 448 µM) | MFC [10]: 0.98 µg/mL (≈ 3.51 µM) | MIC [10]: 0.06 µg/mL (≈ 0.215 µM) | responders at 100 mg/kg [11]: 37.5%

N#Cc1ccc(-c2csc(N/N=C/C3CC3)n2)cc1 [Compound 3h, (E)-4-(2-(2-(Cyclopropylmethylene)hydrazinyl)thiazol-4-yl)benzonitrile]
MFC [1]: 15.6 µg/mL (≈ 58.2 µM) | MIC [1]: 0.98 µg/mL (≈ 3.65 µM) | MFC [2]: 0.98 µg/mL (≈ 3.65 µM) | MIC [2]: 0.48 µg/mL (≈ 1.79 µM) | MFC [3]: 3.91 µg/mL (≈ 14.6 µM) | MIC [3]: 1.95 µg/mL (≈ 7.27 µM) | MFC [4]: > 1000 µg/mL | MIC [4]: 125 µg/mL (≈ 466 µM) | MFC [5]: 3.91 µg/mL (≈ 14.6 µM) | MIC [5]: 0.48 µg/mL (≈ 1.79 µM) | MFC [6]: 0.48 µg/mL (≈ 1.79 µM) | MIC [6]: 0.24 µg/mL (≈ 0.894 µM) | MFC [7]: 125 µg/mL (≈ 466 µM) | MIC [7]: 7.81 µg/mL (≈ 29.1 µM) | MFC [8]: 7.81 µg/mL (≈ 29.1 µM) | MIC [8]: 0.48 µg/mL (≈ 1.79 µM) | MFC [9]: > 1000 µg/mL | MIC [9]: 125 µg/mL (≈ 466 µM) | MFC [10]: 0.98 µg/mL (≈ 3.65 µM) | MIC [10]: 0.03 µg/mL (≈ 0.112 µM) | responders at 100 mg/kg [11]: 50%

Brc1ccc(-c2csc(N/N=C/C3CC3)n2)cc1 [Compound 3b, (E)-4-(4-Bromophenyl)-2-(2-(cyclopropylmethylene)hydrazinyl)thiazole]
MFC [1]: 1.95 µg/mL (≈ 6.05 µM) | MIC [1]: 0.12 µg/mL (≈ 0.372 µM) | MFC [2]: 0.06 µg/mL (≈ 0.186 µM) | MIC [2]: 0.06 µg/mL (≈ 0.186 µM) | MFC [3]: 0.98 µg/mL (≈ 3.04 µM) | MIC [3]: 0.12 µg/mL (≈ 0.372 µM) | MFC [4]: > 1000 µg/mL | MIC [4]: 62.5 µg/mL (≈ 194 µM) | MFC [5]: 0.48 µg/mL (≈ 1.49 µM) | MIC [5]: 0.12 µg/mL (≈ 0.372 µM) | MFC [6]: 3.91 µg/mL (≈ 12.1 µM) | MIC [6]: 0.24 µg/mL (≈ 0.745 µM) | MFC [7]: > 1000 µg/mL | MIC [7]: 15.6 µg/mL (≈ 48.5 µM) | MFC [8]: 0.48 µg/mL (≈ 1.49 µM) | MIC [8]: 0.24 µg/mL (≈ 0.745 µM) | MFC [10]: 0.12 µg/mL (≈ 0.372 µM) | MIC [10]: 0.06 µg/mL (≈ 0.186 µM) | responders at 100 mg/kg [11]: 37.5%
